Reference: patent US11084808B2, “Oxopicolinamide derivative, preparation method therefor and pharmaceutical use thereof” (Jiangsu Hengrui Medicine Co., Ltd., priority 2016, dated 2021)

System: human blood
Experiment: In vitro anticoagulant effect on human blood (APTT, CT2)
Format: biochemical
Conditions: Table 2; concentration of the compound corresponding to 2 times the APTT of the blank control; human plasma
Procedure: Test Example 2: Determination of In Vitro Anticoagulant Effect of the Compounds of the Present Invention on Human Blood
1. Experimental Materials
Plasma: Human blood was collected in blood collection tubes containing no anticoagulant, and then 3.8% sodium citrate (volume ratio 1:9) was added. The tubes were centrifuged at 2500 rpm for 10 minutes at room temperature, and then the plasma was collected and stored at −80° C.:
Reagents: APTT reagent (Activated partial thromboplastin time assay kit, SIEMENS, Art. No. B4218-1), calcium chloride solution;
Instrument: Coagulation instrument (SYSMEX, CA-500).
The divided plasma was melted at room temperature and mixed well. 10000 μM the test compound dissolved in 100% DMSO was diluted to 3000, 300, 200, 150, 75, 30, 10, 3, 0.3 μM with 100% DMSO, and the blank was 100% DMSO. The reagent, plasma, and compound were placed in corresponding positions in the coagulation instrument, and APTT detection of the compound was carried out.
Curve fitting was carried out by graphpad and CT2 was calculated, i.e., the concentration of the compound corresponding to 2 times the APTT of the blank control.

## COc1cn([C@H](Cc2cnn(C)c2)C(=O)Nc2ccc(C(=O)O)cc2)c(=O)cc1-c1cc(Cl)ccc1C(C)=O [Example 104, (R)-4-(2-(4-(2-acetyl-5-chlorophenyl)-5-methoxy-2-oxopyridin-1(2H)-yl)-3-(1-methyl-1H-pyrazol-4-yl)propanamido)benzoic acid]
  CT2 (compound concentration doubling APTT): >10000 µM

## COc1cn([C@@H](Cc2ccccc2)C(=O)Nc2ccc(C(=O)O)cc2)c(=O)cc1-c1cc(Cl)ccc1C(C)=O [Example 5, (S)-4-(2-(4-(2-acetyl-5-chlorophenyl)-5-methoxy-2-oxopyridin-1(2H)-yl)-3-phenylpropanamido)benzoic acid]
  CT2 (compound concentration doubling APTT): 2.0 µM

## COc1cn([C@@H](CCOC2CCC2)C(=O)Nc2ccc(C(=O)O)cc2)c(=O)cc1-c1cc(Cl)ccc1C(C)=O [Example 164, (S)-4-(2-(4-(2-acetyl-5-chlorophenyl)-5-methoxy-2-oxopyridin-1(2H)-yl)-4-cyclobutoxybutanamido)benzoic acid]
  CT2 (compound concentration doubling APTT): 6.4 µM

## COc1cn(C(Cc2ccn(C3CC3)n2)C(=O)Nc2ccc3nccnc3c2)c(=O)cc1-c1cc(Cl)ccc1C(C)=O (centres unmarked) [Example 96, 2-(4-(2-acetyl-5-chlorophenyl)-5-methoxy-2-oxopyridin-1(2H)-yl)-3-(1-cyclopropyl-1H-pyrazol-3-yl)-N-(quinoxalin-6-yl)propanamide]
  CT2 (compound concentration doubling APTT): 6.7 µM

## COc1cn([C@@H](Cc2ccn(C3CC3)n2)C(=O)Nc2ccc(C(=O)O)cc2)c(=O)cc1-c1cc(Cl)ccc1C(C)=O [Example 94, (S)-4-(2-(4-(2-acetyl-5-chlorophenyl)-5-methoxy-2-oxopyridin-1(2H)-yl)-3-(1-cyclopropyl-1H-pyrazol-3-yl)propanamido)benzoic acid]
  CT2 (compound concentration doubling APTT): 2.2 µM

## COc1cn([C@@H](CCOC(C)(C)C)C(=O)Nc2ccc(C(=O)O)cc2)c(=O)cc1-c1cc(Cl)ccc1C(C)=O [Example 111, (S)-4-(2-(4-(2-acetyl-5-chlorophenyl)-5-methoxy-2-oxopyridin-1(2H)-yl)-4-(tert-butoxy)butanamido)benzoic acid]
  CT2 (compound concentration doubling APTT): 3.2 µM

## [2H]C([2H])([2H])Oc1cn([C@H](Cc2ccccc2)C(=O)Nc2ccc(C(=O)O)cc2)c(=O)cc1-c1cc(Cl)ccc1C(C)=O [Example 180, 4-[[(2R)-2-[4-(2-acetyl-5-chloro-phenyl)-2-oxo-5-(trideuteromethoxy)-1-pyridyl]-3-phenyl-propionyl]amino]benzoic acid]
  CT2 (compound concentration doubling APTT): >10000 µM

## COc1cn(C(Cc2ccn(C3CC3)n2)C(=O)Nc2ccc3ncncc3c2)c(=O)cc1-c1cc(Cl)ccc1C(C)=O (centres unmarked) [Example 98, 2-(4-(2-acetyl-5-chlorophenyl)-5-methoxy-2-oxopyridin-1(2H)-yl)-3-(1-cyclopropyl-1H-pyrazol-3-yl)-N-(quinazolin-6-yl)propanamide]
  CT2 (compound concentration doubling APTT): 7.6 µM

## COc1cn([C@H](CCOC(C)(C)C)C(=O)Nc2ccc(C(=O)O)cc2)c(=O)cc1-c1cc(Cl)ccc1C(C)=O [Example 112, (R)-4-(2-(4-(2-acetyl-5-chlorophenyl)-5-methoxy-2-oxopyridin-(2H)-yl)-4-(tert-butoxy)butanamido)benzoic acid]
  CT2 (compound concentration doubling APTT): >10000 µM

## COc1cn(C(Cc2ccccc2)C(=O)Nc2ccc(C(=O)O)cc2)c(=O)cc1-c1cc(Cl)ccc1C(=O)CC1CC1 (centres unmarked) [Example 39, 4-(2-(4-(5-chloro-2-(2-cyclopropylacetyl)phenyl)-5-methoxy-2-oxopyridin-1(2H)-yl)-3-phenylpropanamido)benzoic acid]
  CT2 (compound concentration doubling APTT): 8.3 µM

## CCC(=O)c1ccc(Cl)cc1-c1cc(=O)n([C@H](CCOC(C)(C)C)C(=O)Nc2ccc(C(=O)O)cc2)cc1OC [Example 109, (R)-4-(4-(tert-butoxy)-2-(4-(5-chloro-2-propionylphenyl)-5-methoxy-2-oxopyridin-1(2H)-yl)butanamido)benzoic acid]
  CT2 (compound concentration doubling APTT): >10000 µM

## COc1cn([C@@H](Cc2cccc(C#N)c2)C(=O)Nc2ccc(C(=O)O)cc2)c(=O)cc1-c1cc(Cl)ccc1C(C)=O [Example 89, (S)-4-(2-(4-(2-acetyl-5-chlorophenyl)-5-methoxy-2-oxopyridin-1(2H)-yl)-3-(3-cyanophenyl)propanamido)benzoic acid]
  CT2 (compound concentration doubling APTT): 5.7 µM

## COc1cn([C@H](CC2CCC2)C(=O)Nc2ccc(C(=O)O)cc2)c(=O)cc1-c1c(C(C)=O)ccc(Cl)c1F [Example 160, (R)-4-(2-(4-(6-acetyl-3-chloro-2-fluorophenyl)-5-methoxy-2-oxopyridin-1(2H)-yl)-3-cyclobutylpropanamido)benzoic acid]
  CT2 (compound concentration doubling APTT): 3.8 µM

## COc1cn([C@@H](Cc2cnn(C)c2)C(=O)Nc2ccc(C(=O)O)cc2)c(=O)cc1-c1cc(Cl)ccc1C(C)=O [Example 105, (S)-4-(2-(4-(2-acetyl-5-chlorophenyl)-5-methoxy-2-oxopyridin-1(2H)-yl)-3-(1-methyl-1H-pyrazol-4-yl)propanamido)benzoic acid]
  CT2 (compound concentration doubling APTT): 6.9 µM

## COc1cn([C@H](Cc2ccccc2)C(=O)Nc2ccc(C(=O)O)cc2)c(=O)cc1-c1cc(Cl)ccc1C(C)=O [Example 6, (R)-4-(2-(4-(2-acetyl-5-chlorophenyl)-5-methoxy-2-oxopyridin-1(2H)-yl)-3-phenylpropanamido)benzoic acid]
  CT2 (compound concentration doubling APTT): >10000 µM

## COc1cn([C@@H](Cc2ccccc2)C(=O)Nc2ccc(C(N)=O)cc2)c(=O)cc1-c1cc(Cl)ccc1C(C)=O [Example 11, (S)-4-(2-(4-(2-acetyl-5-chlorophenyl)-5-methoxy-2-oxopyridin-1(2H)-yl)-3-phenylpropanamido)benzamide]
  CT2 (compound concentration doubling APTT): 4.2 µM

## COCC[C@@H](C(=O)Nc1ccc2[nH]c(C(=O)O)cc2c1)n1cc(OC)c(-c2cc(Cl)ccc2C(C)=O)cc1=O [Example 2, (S)-5-(2-(4-(2-acetyl-5-chlorophenyl)-5-methoxy-2-oxopyridin-1(2H)-yl)-4-methoxybutanamido)-1H-indole-2-carboxylic acid]
  CT2 (compound concentration doubling APTT): 2.9 µM

## [2H]C([2H])([2H])Oc1cn([C@@H](Cc2ccccc2)C(=O)Nc2ccc(C(=O)O)cc2)c(=O)cc1-c1cc(Cl)ccc1C(C)=O [Example 179, 4-[[(2S)-2-[4-(2-acetyl-5-chloro-phenyl)-2-oxo-5-(trideuteromethoxy)-1-pyridyl]-3-phenyl-propionyl]amino]benzoic acid]
  CT2 (compound concentration doubling APTT): 3.3 µM

## [2H]C([2H])([2H])C(=O)c1ccc(Cl)cc1-c1cc(=O)n([C@@H](Cc2ccccc2)C(=O)Nc2ccc(C(=O)O)cc2)cc1OC [Example 183, 4-[[(2S)-2-[4-[5-chloro-2-(2,2,2-trideuteroacetyl)phenyl]-5-methoxy-2-oxo-1-pyridyl]-3-phenyl-propionyl]amino]benzoic acid]
  CT2 (compound concentration doubling APTT): 2.6 µM

## COc1cn([C@@H](Cc2ccccc2)C(=O)Nc2ccc3nn(C)cc3c2)c(=O)cc1-c1cc(Cl)ccc1C(C)=O [Example 20, (S)-2-(4-(2-acetyl-5-chlorophenyl)-5-methoxy-2-oxopyridin-1(2H)-yl)-N-(2-methyl-2H-indazol-5-yl)-3-phenylpropanamide]
  CT2 (compound concentration doubling APTT): 6.5 µM

## CNC(=O)c1ccc(NC(=O)[C@H](Cc2ccccc2)n2cc(OC)c(-c3cc(Cl)ccc3C(C)=O)cc2=O)cc1 [Example 13, (S)-4-(2-(4-(2-acetyl-5-chlorophenyl)-5-methoxy-2-oxopyridin-1(2H)-yl)-3-phenylpropanamido)-N-methylbenzamide]
  CT2 (compound concentration doubling APTT): 6.0 µM

## CCC(=O)c1ccc(Cl)cc1-c1cc(=O)n(C(Cc2ccccc2)C(=O)Nc2ccc(C(=O)O)cc2)cc1OC (centres unmarked) [Example 8, 4-(2-(4-(5-chloro-2-propionylphenyl)-5-methoxy-2-oxopyridin-1(2H)-yl)-3-phenylpropanamido)benzoic acid]
  CT2 (compound concentration doubling APTT): 6.4 µM

## CCC(=O)c1ccc(Cl)cc1-c1cc(=O)n(C(Cc2ccn(C)n2)C(=O)Nc2ccc(C(=O)O)cc2)cc1OC (centres unmarked) [Example 99, 4-(2-(4-(5-chloro-2-propionylphenyl)-5-methoxy-2-oxopyridin-1(2H)-yl)-3-(1-methyl-1H-pyrazol-3-yl)propanamido)benzoic acid]
  CT2 (compound concentration doubling APTT): 3.5 µM

## CCC(=O)c1ccc(Cl)cc1-c1cc(=O)n(C(CC2CCCCO2)C(=O)Nc2ccc(C(=O)O)cc2)cc1OC (centres unmarked) [Example 166]
  CT2 (compound concentration doubling APTT): 7.2 µM

## [2H]c1c([2H])c([2H])c(C([2H])([2H])[C@@H](C(=O)Nc2ccc(C(=O)O)cc2)n2cc(OC)c(-c3cc(Cl)ccc3C(C)=O)cc2=O)c([2H])c1[2H] [Example 181, 4-[[(2S)-2-[4-(2-acetyl-5-chloro-phenyl)-5-methoxy-2-oxo-1-pyridyl]-3,3-dideutero-3-(2,3,4,5,6-pentadeuterophenyl)propionyl]amino]benzoic acid]
  CT2 (compound concentration doubling APTT): 2.3 µM

## CCC(=O)c1ccc(Cl)cc1-c1cc(=O)n([C@@H](CCOC(C)(C)C)C(=O)Nc2ccc(C(=O)O)cc2)cc1OC [Example 108, (S)-4-(4-(tert-butoxy)-2-(4-(5-chloro-2-propionylphenyl)-5-methoxy-2-oxopyridin-1(2H)-yl)butanamido)benzoic acid]
  CT2 (compound concentration doubling APTT): 1.4 µM
